Here are results for one cell line from the supplement of paper PMC10307832.

Compound in one experiment: CC(C)(C)c1cc(NC(=O)Nc2ccc(-c3cn4c(n3)sc3cc(OCCN5CCOCC5)ccc34)cc2)no1 [Quizartinib]
Description: relative viability (nuclei count vs DMSO), 5 days (fraction); higher = more cells survive. A digest of the protocol:
(§1)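 After an overnight hold at 37 °C, lung cancer cell lines in 1536-well plates were pinned with five library-drug doses (not always all listed), each √10 from the next, on vehicle-anchored plates. The cells stayed 5 days without fresh medium, then a one-step fix, permeabilisation and Hoechst stain preceded 4× imaging and MetaXpress nuclear counts. A plate passed only with control CV under 25% and at least one doubling. Viability is the median, over plates, of treated-well nuclei relative to vehicle-well nuclei.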

Compound in another experiment: COCC[n+]1c2c(n(Cc3cnccn3)c1C)C(=O)c1ccccc1C2=O [YM155]
The experiment is described as above. A digest of the protocol:
as §1

With NCI-H1648, the relative viability with Quizartinib (0.003162 µM) amounted to 0.756; with Quizartinib (0.01 µM) it was 0.81; in the experiment with Quizartinib (0.03162 µM), 0.886; with Quizartinib (0.1 µM), 1.29; in the experiment with YM155 (0.002 µM) it was 0.748; in the experiment with YM155 (0.006325 µM), 1.11. The relative viability was found to be 0.829 with YM155 (0.02 µM) and 0.995 with YM155 (0.06325 µM).
